US12281180B2, “Peptoid-peptide macrocycles, pharmaceutical compositions and methods of using the same” (New York University, priority 2018, dated 2025)
Numbered stars: 1 amine (or outer) side, 2 acyl side, 3 side chain; on linkers, the order of the positions; unused ones are H or OH. Square brackets hold non-standard residues; d marks the D form. Peptide text beside a SMILES is read from it. N(2-(2-PhOPh)Et)Gly = O=C(O)CNCCc1ccccc1Oc1ccccc1; Gly(N-3,5-(OMe)2-Ph) = COc1cc(NCC(=O)O)cc(OC)c1; X1 = COc1ccc([C@H](C)N(CC(=O)[*:2])[*:1])cc1; N((CH2)3OiPr)Gly = CC(C)OCCCNCC(=O)O

Assays:
[1] = test system: Wnt signaling in zebrafish embryos; assay: Zebrafish phenotypic assay of Wnt signaling (eye development); format: in vivo
Text: Rescue of eye development in Wnt-activated zebrafish embryos by the hit oligomer macrocycle—To evaluate the efficacy of 13 in vivo, a zebrafish model was utilized. The relevance of the model for our studies is that zebrafish embryos with Wnt activating mutations in the AXIN gene, a component of the β-catenin destruction complex, fail to develop eyes or a forebrain. The phenotype can be recapitulated by treatment with an inhibitor (termed BIO) for another β-catenin destruction complex member, GSK3, in embryos at 6 hours post-fertilization (hpf). It would then be anticipated that 13 inhibits the chemically over-activated Wnt signal, and potentially rescue eye development. To test this compound BIO was added to zebrafish embryos at 6 hpf with and without 13 as described in FIG. 10A.
Zebrafish Experiments The zebrafish phenotypic assay was conducted using wildtype zebrafish embryos seeded into a 96 well round bottom plate in 50 μl of blue zebrafish embryo media. At 50% epiboly, roughly 5.5 hours post fertilization, 50 ul of 30 μM cyclic peptoid compound was added. About 30 minutes later at shield stage, 50 μl 6 nM (3×) BIO was added. The embryos were then visualized for the presence of eyes and imaged at 30 hours post fertilization.

[2] = biological target: β-catenin:TCF4 interaction (Homo sapiens, UniProt P35222); settings: read-out: IC50 for inhibition of β-catenin binding to TCF4 N-terminal β-catenin binding domain; 5 nM His6-β-catenin
AR signaling = assay: 3x-Androgen Response Element (ARE) luciferase reporter assay; format: cell-based; settings: for IC50: 3xARE LNCaP-abl cells, 48 h compound, read-out: IC50 for inhibition of the AR luciferase reporter
Procedure: (§1) Compound testing and identification of a hit compound—Using a TOP-Flash Wnt luciferase reporter, 12 oligomers identified from in silico modeling for inhibitory activity (FIG. 6A) were tested. At […] concentration, all compounds had some level of Wnt inhibitory activity in cell culture, with varying degrees of efficacy. Also employed was a 3×-Androgen Response Element (ARE) luciferase reporter to measure the effect on AR activity. […] FIG. 2B depicts the predicted structure and contacts of the β-catenin: 13 complex.

Wnt signaling pathway = assay: TOP-Flash Wnt luciferase reporter assay; format: cell-based; settings: for IC50: TOP-Flash LNCaP-abl cells, siAPC 24 h then 24 h compound, read-out: IC50 for Wnt luciferase inhibition
Procedure: The macrocycles were evaluated for their ability to inhibit the Wnt signaling pathway in cell culture. The macrocycles were administered at a concentration of 10 micromolar, and the activity was monitored with a luciferase reporter assay responsive to signaling through the Wnt pathway. […] The macrocycles were also observed to exert minimal cellular toxicity at the 10 micromolar concentration. […] Cells were incubated with 5 μM of peptoid macrocycles prior to co-IP.
as §1

[3] = biological target: T1, E-cadherin:β-catenin interaction (Homo sapiens, UniProt P35222); assay: Two-hybrid like assay, E-cadherin with β-catenin; format: cell-based
T1 sequence (P35222 1-781): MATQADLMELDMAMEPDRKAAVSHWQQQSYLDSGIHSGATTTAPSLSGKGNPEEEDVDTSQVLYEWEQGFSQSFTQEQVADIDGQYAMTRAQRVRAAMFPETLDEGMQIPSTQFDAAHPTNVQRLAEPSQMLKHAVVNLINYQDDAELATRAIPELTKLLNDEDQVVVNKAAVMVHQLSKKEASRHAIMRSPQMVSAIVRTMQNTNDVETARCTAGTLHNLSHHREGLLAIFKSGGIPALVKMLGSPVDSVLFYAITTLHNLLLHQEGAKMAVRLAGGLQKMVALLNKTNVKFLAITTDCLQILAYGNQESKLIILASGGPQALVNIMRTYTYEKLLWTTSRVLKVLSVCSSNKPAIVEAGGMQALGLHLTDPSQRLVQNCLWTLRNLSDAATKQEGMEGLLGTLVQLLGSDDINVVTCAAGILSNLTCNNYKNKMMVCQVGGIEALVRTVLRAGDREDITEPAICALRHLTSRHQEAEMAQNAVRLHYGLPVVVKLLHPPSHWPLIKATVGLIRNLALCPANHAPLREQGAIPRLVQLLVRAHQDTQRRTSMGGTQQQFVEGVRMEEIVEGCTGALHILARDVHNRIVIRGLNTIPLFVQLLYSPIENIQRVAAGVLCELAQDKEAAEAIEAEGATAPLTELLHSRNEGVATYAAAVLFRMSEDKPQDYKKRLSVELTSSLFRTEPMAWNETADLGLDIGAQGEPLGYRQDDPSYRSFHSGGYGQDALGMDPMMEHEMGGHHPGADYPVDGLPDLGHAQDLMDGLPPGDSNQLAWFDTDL

[4] = biological target: T2, β-catenin:TCF4 protein interaction (Homo sapiens, UniProt P35222); assay: Co-immunoprecipitation of myc-TCF4 and endogenous β-catenin in HEK293 cells; format: cell-based; settings: 10 μM, 48 hour treatment
T2 construct: endogenous in cells; host or cells: HEK293 (β-catenin endogenous; myc-TCF4 transfected from addgene #32738)
T2 sequence (P35222 2-781 limits assumed): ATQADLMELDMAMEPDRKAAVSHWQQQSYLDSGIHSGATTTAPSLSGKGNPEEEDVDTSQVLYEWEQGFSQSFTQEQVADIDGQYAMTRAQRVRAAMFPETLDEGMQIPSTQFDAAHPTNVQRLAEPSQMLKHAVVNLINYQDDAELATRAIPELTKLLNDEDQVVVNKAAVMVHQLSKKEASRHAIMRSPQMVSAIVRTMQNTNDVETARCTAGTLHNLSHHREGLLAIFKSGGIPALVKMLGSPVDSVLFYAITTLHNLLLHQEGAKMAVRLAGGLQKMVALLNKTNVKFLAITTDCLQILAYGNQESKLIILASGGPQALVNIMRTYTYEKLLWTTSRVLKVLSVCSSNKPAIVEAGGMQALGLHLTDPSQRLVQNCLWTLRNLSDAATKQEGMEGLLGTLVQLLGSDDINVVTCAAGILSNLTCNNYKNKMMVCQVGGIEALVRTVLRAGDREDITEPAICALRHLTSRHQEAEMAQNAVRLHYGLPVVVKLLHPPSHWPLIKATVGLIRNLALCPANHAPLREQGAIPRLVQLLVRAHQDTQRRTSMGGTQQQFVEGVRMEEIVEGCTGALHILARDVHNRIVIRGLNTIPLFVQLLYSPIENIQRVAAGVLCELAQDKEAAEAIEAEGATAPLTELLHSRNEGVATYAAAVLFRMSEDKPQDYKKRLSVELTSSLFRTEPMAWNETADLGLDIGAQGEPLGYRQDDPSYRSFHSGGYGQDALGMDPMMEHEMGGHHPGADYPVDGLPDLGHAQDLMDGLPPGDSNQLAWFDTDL
Procedure: HEK293 cells were transiently transfected with a plasmid expressing full length, myc-tagged TCF4.
Cell Culture LNCaP-abl and LNCaP-95 cells were cultured in indicator free RPMI 1640 media (Life) supplemented with 10% charcoal stripped FBS, 1% penn/strep, and 1% L-Glutamine. HEK-293 Cells were cultured in DMEM media (Life) supplemented with 10% FBS and 1% penn/strep. Luciferase assays were conducted using stably transfected TOP-flash and 3×ARE LNCaP-abl cell lines. For the Wnt pathway, TOP-Flash LNCaP-abl cells were treated with siAPC for 24 hours followed by 24 hours treatment with compound. For the AR-pathway, 3×ARE LNCaP-abl cells were treated for 48 hours with compound, with the addition of R1881 for the final 8 hours. Both were measured using the ONE-Glo detection kit (Promega) and reported data is standardized to the cell-titer control values. Co-immunoprecipitation was carried out using HEK293 cells transfected with either myc-TCF (addgene #32738) or myc-TCF dominant negative (addgene #32739) followed by 48 hours of treatment with compound. Cells were lysed using trition lysis buffer and 1 mg total protein was incubated overnight at 4 C with 40 μl anti-cMyc magnetic beads (Thermo). […] After 5 days of treatment the cell viability was measured with the CellTiter-Fluor Cell Viability Assay (Promega) and data is reported standardized to DMSO control.

[5] = test system: LNCaP-abl and LNCaP-95 cells; assay: RT-qPCR of endogenous Wnt and AR target genes; format: cell-based; settings: 10 μM, 24 hours
Procedure: These cell lines were derived from androgen-sensitive LNCaP cells, and passaged in androgen-deprived media to mimic the development of castration resistance in patient tumors. mRNA from LNCaP-abl and LNCaP-95 cells treated with DMSO (vehicle) was isolated, 10 μM 13 and linear 13 for 24 hours to check the expression of endogenous Wnt and AR target genes (FIG. 8A). […] AR-V7 is particularly challenging to target as most AR antagonists target the ligand binding domain.
Cell Culture LNCaP-abl and LNCaP-95 cells were cultured in indicator free RPMI 1640 media (Life) supplemented with 10% charcoal stripped FBS, 1% penn/strep, and 1% L-Glutamine. HEK-293 Cells were cultured in DMEM media (Life) supplemented with 10% FBS and 1% penn/strep. Luciferase assays were conducted using stably transfected TOP-flash and 3×ARE LNCaP-abl cell lines. For the Wnt pathway, TOP-Flash LNCaP-abl cells were treated with siAPC for 24 hours followed by 24 hours treatment with compound. For the AR-pathway, 3×ARE LNCaP-abl cells were treated for 48 hours with compound, with the addition of R1881 for the final 8 hours. Both were measured using the ONE-Glo detection kit (Promega) and reported data is standardized to the cell-titer control values. Co-immunoprecipitation was carried out using HEK293 cells transfected with either myc-TCF (addgene #32738) or myc-TCF dominant negative (addgene #32739) followed by 48 hours of treatment with compound. Cells were lysed using trition lysis buffer and 1 mg total protein was incubated overnight at 4 C with 40 μl anti-cMyc magnetic beads (Thermo). The beads were washed 3× with lysis buffer then boiled in 2× sample loading dye. SDS-PAGE and western blotting were performed using anti-myc (CST 2276) and anti-β-catenin (CST 8480). RT-qPCR was performed using RNA isolated with the RNEasy kit (Qiagen) from LNCaP-abl and LNCaP-95 cells after 24 hour treatment with 10 μM compound. The Verso cDNA synthesis kit (Thermo) with 1 μg total RNA was used, and qPCR data was collected using Fast SYBR Green Master Mix on a QuantiStudio 6 Flex (Life Technologies). 2D proliferation assays were conducted using 384 well plates seeded with 2000 cells/well LNCaP-abl or LNCaP-95 cells. After 5 days of treatment the cell viability was measured with the CellTiter-Fluor Cell Viability Assay (Promega) and data is reported standardized to DMSO control.

[6] = biological target: T3, β-catenin:TCF family interaction (Homo sapiens, UniProt P35222); assay: Two-hybrid like assay of β-catenin:TCF family member interactions; format: cell-based
T3 sequence (P35222 1-781): T1 sequence (P35222 1-781)

LNCaP-abl spheroids = assay: Spheroid 3D cell culture (PrestoBlue viability, spheroid area); format: cell-based
Procedure: The effects on spheroid formation and growth were evaluated following treatment with DMSO, 13, or linear 13 administered at the time of seeding at low cell density in a 384 well plate. In a separate experiment, to test the impact on pre-formed spheroids, cells were treated five days after initial seeding. Spheroids from both experiments were grown for 22 days, with compound refreshed on days 5, 9, 13, 16, and 20. […] PrestoBlue was used to measure cell viability on day 22 (FIG. 9B). […] FIG. 9C-F depicts spheroid area over time based on size measurements from the images taken throughout the experiment.
Spheroid 3D Cell Culture LNCaP-abl cells were seeded into 384 well ultra-low attachment plates (Corning), 1000 cells/well. Varying concentrations of compound were added either on the same day as seeding or on day 5. Media was changed every 3-4 days using a Biotek automated media exchanger. Images were taken using an ArraySca VTI (Thermo) on days 5, 9, 13, 16, 20, and 22. A final viability measurement was taken on day 22 using PrestoBlue reagent (Thermo).

[7] = 3 additional independent experiments, each
[8] = first experiment, eight fish, BIO added at 6 hpf with or without 13

Compound: O=C1Nc2cc(Br)ccc2/C1=C1/Nc2ccccc2/C1=N\O [BIO, reference compound]
- Fish that developed eyes [1, 7]: 0/8
- Fish that developed eyes [1, 8]: one of the eight fish

Compound: COc1ccc([C@H](C)N2CC(=O)N[C@H](C)C(=O)N(CCc3ccccc3Oc3ccccc3)CC(=O)N(c3cc(OC)cc(OC)c3)CC(=O)N(CCCOC(C)C)CC(=O)N([C@@H](C)c3ccc(OC)cc3)CC2=O)cc1 [Compound 13] (cyclo([dA][N(2-(2-PhOPh)Et)Gly][Gly(N-3,5-(OMe)2-Ph)][N((CH2)3OiPr)Gly][X1][X1]))
- IC50 [2]: 5.44 µM
- Inhibition of AR signaling, 3x-ARE luciferase reporter (AR signaling): more effective
- IC50 (AR signaling): 1.02 µM
- Wnt inhibitory activity, TOP-Flash Wnt luciferase reporter (Wnt signaling pathway; 10 µM concentration, cell culture): more effective
- IC50 (Wnt signaling pathway): 0.105 µM
- Fish that developed eyes [1, 7]: 8/8
- Fish that developed eyes [1, 8]: all the fish
- Inhibition of E-cadherin interaction with β-catenin [3]: not
- β-catenin:TCF interaction by co-immunoprecipitation, compared to DMSO [4]: decreased
- AR mRNA [5]: decreased
- Cyclin D1 mRNA [5]: decreased
- FKBP5 mRNA [5]: decreased
- PSA mRNA [5]: decreased
- Transcription of AR splice variant AR-V7 [5]: decreased
- Transcription of E-cadherin [5]: increased
- cMYC mRNA [5]: decreased
- Inhibition of TCF family interaction with β-catenin [6]: inhibits
- Spheroid growth / area over time (LNCaP-abl spheroids; 0.5 μM, added on day 0): slowed the growth
- Spheroid formation / area over time (LNCaP-abl spheroids; 20 μM, 10 μM, 5 μM, 2 μM and 1 μM, added on day 0 with seeding): prevented spheroid formation
- Growth of preformed spheroids / area over time (LNCaP-abl spheroids; at or above 2 μM, treatment started at day 5): stalled the growth of preformed spheroids
- Spheroid growth / area over time (LNCaP-abl spheroids; between 0.001 µM and 0.1 μM): little effect

Compound: NH2-D-Ala-N-mpp, N-dmp, N-ipp, N-Smpe, N-Smpe-OH [linear 13]
- IC50 (AR signaling): 7.63 µM
- IC50 (Wnt signaling pathway): 3.27 µM
